Patent US11117901B2, “Substituted pyrazolo[4,3-h]quinazolines as choline kinase inhibitors” (NERVIANO MEDICAL SCIENCES S.R.L., priority 2017, dated 2021)

Assays:
Δ49N-hChoKα = target: T1, Δ49N-hChoKα (Homo sapiens, UniProt P35790); test: Biochemical kinase inhibition assay (Kinase-Glo luminescent) on Δ49N-hChoKα; settings: recombinant Δ49N-hChoKα 2.2 nM, ATP 5 μM, choline 5 μM, 60 min rt; read-out: ChoKα IC50
T1 construct: cDNA fragment 362-1534, corresponding to aminoacids 50 457; GST (N, cleaved yes); PreScission Protease recognition site (N); made in house; host or cells: Escherichia coli BL21pLysS (DE3)
Protocol: (§1) HumanΔ49ChoKα ([…]Δ49N-hChoKα) cDNA fragment 362-1534, corresponding to aminoacids 50 457 (J. Mol. Biol. 2006, 364, 136-151), and hChoKβ full length (FL), corresponding to aminoacids 2-395 ((PLoS ONE 2009, 4, e7819), were amplified by PCR from human library and cloned, inserting upstream a Prescission Protease recognition site, in pDonor 221 vector, using the Gateway Technology® (Invitrogen). After sequence control, LR reaction was performed in the final expression pGEX 2Tg vector. Both the proteins were expressed in Escherichia coli BL21pLysS (DE3) strain in auto-induction (Kessler) medium in the presence of […] carbenicillin at 25° C. for 16 h. Cells were harvested by centrifugation, the pellet was re-suspended in Lysis buffer (50 mM Tris-HCl pH 7.8, 150 mM NaCl, 10% glycerol, 0.2% CHAPS, 20 mM DTT, Protease Inhibitor Cocktail Tablets from Roche Biochemicals) and lysed by Gaulin homogenizer (Niro Soavi). The lysate was cleared by centrifugation. The supernatant was added to GSH resin and let flow by gravity. The GSH resin was washed with 5 column volume (CV) of cold wash buffer (50 mM Tris-HCl pH 7.8, 150 mM NaCl, 10% glycerol), then with 10 CV of the same buffer containing 2 mM of DTT. Both GST-Δ49N-hChoKα and hChoKβ were subjected to on-column cleavage of the GST tag with Prescission Protease overnight. The eluted cleaved proteins were further purified by ion exchange (ResQ 6 mL chromatography column from GE healthcare) with a gradient from 50 to 500 mM NaCl in 30 CV. The fractions containing […]Δ49N-hChoKα or hChoKβ were pooled, concentrated and gel filtered on a Superdex200 16/60 (GE Healthcare). The final protein concentration was estimated using the Bradford assay. All the samples purified were resolved by SDS-PAGE.
(§2) Biochemical Kinase inhibition Assay on Δ49N-hChoKα and hChoKβFL
(§3) The biochemical activity of compounds against Δ49N-ChoKα and ChoK3 FL were determined using the Kinase-Glo™ Luminescent Kinase Assay (Promega cat. V6711). The assay is based on incubation of the recombinant Δ49N-hChoKα and hChoKβ FL produced in house, 2.2 nM and 30 nM, respectively, with the specific substrates, choline (Sigma-Aldrich-C7017) and ATP, followed by quantification, at the end of reaction time, of the residual not reacted ATP.
(§4) Compounds were 3-fold serially diluted from 10 to 0.0005 μM, then incubated for 60 minutes at room temperature in the presence of ATP 5 μM, choline (5 μM for ChoKα and 20 μM for ChoKβ) and enzyme in a final volume of 19 μL of kinase buffer (50 mM Hepes pH 7.5, 10 mM MgCl2, 1 mM DTT, 3 μM Na3VO4 and 0.2 mg/mL BSA). The final concentration of DMSO was 1%. The assay was run in a robotized format on 384-well plates (Perkin Elmer cat. #6005301).
(§5) At the end of the incubation, an amount of 19 μL of KinaseGlo Reagent was added to each well to stop the reaction and after 30 minutes the luminescence signal was measured using ViewLux reader (Perkin Elmer).
(§6) All information about plate dilution, distribution and raw data of inhibition are tracked via barcode reading and stored in an Oracle DB. The data per each molecule are analyzed by an internally customized version of the SW package “Assay Explorer” which provides sigmoidal fittings of the ten-dilution curves for IC50 determination using a 4 parameter logistic equation: y=bottom+(top−bottom)/(1+10^((log IC50−x)*slope)) where x is the logarithm of the inhibitor concentration, y is the response; y starts at bottom and goes to top with a sigmoid shape.

hChoKβ FL = target: T2, hChoKβ FL (Homo sapiens, UniProt Q9Y259); test: Biochemical kinase inhibition assay (Kinase-Glo luminescent) on hChoKβ FL; settings: recombinant hChoKβ FL 30 nM, ATP 5 μM, choline 20 μM, 60 min rt; read-out: ChoKβ IC50
T2 construct: hChoKβ full length (FL), corresponding to aminoacids 2-395; GST (N, cleaved yes); PreScission Protease recognition site (N); made in house; host or cells: Escherichia coli BL21pLysS (DE3)
Protocol: as §1, §2, §3, §4, §5, §6

T1 sequence (P35790 50-439 isoform P35790-2): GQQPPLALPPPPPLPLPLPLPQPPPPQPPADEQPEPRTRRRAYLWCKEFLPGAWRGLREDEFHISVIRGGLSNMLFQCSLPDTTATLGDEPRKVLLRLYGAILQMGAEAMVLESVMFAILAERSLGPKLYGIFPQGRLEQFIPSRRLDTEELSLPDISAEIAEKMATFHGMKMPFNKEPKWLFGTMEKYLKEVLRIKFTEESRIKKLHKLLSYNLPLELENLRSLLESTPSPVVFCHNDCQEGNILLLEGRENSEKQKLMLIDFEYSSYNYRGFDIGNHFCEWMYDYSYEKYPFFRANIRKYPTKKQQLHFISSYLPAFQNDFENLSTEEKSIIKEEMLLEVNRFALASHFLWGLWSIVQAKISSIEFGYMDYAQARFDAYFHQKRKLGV
T2 sequence (Q9Y259 2-395): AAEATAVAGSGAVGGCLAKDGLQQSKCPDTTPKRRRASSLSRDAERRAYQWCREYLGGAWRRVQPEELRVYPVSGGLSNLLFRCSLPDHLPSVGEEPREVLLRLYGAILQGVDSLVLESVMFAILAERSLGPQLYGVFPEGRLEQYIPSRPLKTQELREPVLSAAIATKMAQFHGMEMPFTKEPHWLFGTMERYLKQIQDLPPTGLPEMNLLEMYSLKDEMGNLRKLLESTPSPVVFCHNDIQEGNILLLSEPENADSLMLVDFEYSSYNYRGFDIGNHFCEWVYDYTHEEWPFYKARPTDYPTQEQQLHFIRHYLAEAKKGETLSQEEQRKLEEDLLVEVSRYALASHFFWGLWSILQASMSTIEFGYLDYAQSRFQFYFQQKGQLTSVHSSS

IC50 (Δ49N-hChoKα) [nM] | IC50 (hChoKβ FL) [nM] | SMILES
511 | 3110 | CC1(C)Cc2cnc(N)nc2-c2[nH]nc(C(=O)Nc3ccc(C(=O)N[C@H]4CC[C@H](O)CC4)cc3)c21 [compound 28]
5 | 213 | CC1CCCN(C2CCN(C(=O)Cc3csc(NC(=O)c4n[nH]c5c4C(C)(C)Cc4cnc(N)nc4-5)n3)CC2)C1 (stereo not shown) [compound 224]
534 | > 10000 | CC1(C)Cc2cnc(N)nc2-c2[nH]nc(C(=O)Nc3nc(CN4CCC(N)CC4)cs3)c21 [compound 152]
215 | 716 | CC1(C)Cc2cnc(N)nc2-c2[nH]nc(C(=O)Nc3ccc(C(=O)N4CCC(N5CCOCC5)CC4)cc3)c21 [compound 50]
481 | 2590 | CCOC(=O)c1ccc(NC(=O)c2n[nH]c3c2C(C)(C)Cc2cnc(N)nc2-3)cc1 [compound 5]
65 | 551 | CN(C)C1CCN(C(=O)Cc2cccc(NC(=O)c3n[nH]c4c3C(C)(C)Cc3cnc(N)nc3-4)c2)CC1 [compound 146]
164 | 3210 | CC1(C)Cc2cnc(N)nc2-c2[nH]nc(C(=O)Nc3cccc(CC(=O)N4CCC(N)CC4)c3)c21 [compound 149]
25 | 256 | CC1(C)Cc2cnc(N)nc2-c2[nH]nc(C(=O)Nc3nc(CC(=O)N4CCC(N)CC4)cs3)c21 [compound 44]
111 | 1330 | CC1(C)Cc2cnc(N)nc2-c2[nH]nc(C(=O)Nc3ncc(C(=O)N4CCC(N5CCCCC5)CC4)s3)c21 [compound 84]
13 | 654 | CC1(C)Cc2cnc(N)nc2-c2[nH]nc(C(=O)Nc3nc(C(F)(F)C(=O)N4CCC(N5CCCCC5)CC4)cs3)c21 [compound 183]
623 | 765 | CC1(C)Cc2cnc(N)nc2-c2[nH]nc(C(=O)Nc3ccc(C(=O)N4CCC(N)CC4)cc3)c21 [compound 49]
2 | 26 | CC1CCN(C2(C)CCN(C(=O)Cc3csc(NC(=O)c4n[nH]c5c4C(C)(C)Cc4cnc(N)nc4-5)n3)CC2)CC1 [compound 227]
5 | 3160 | CC1CCN(C2CCN(C(=O)Cc3csc(NC(=O)c4nn(C)c5c4C(C)(C)Cc4cnc(N)nc4-5)n3)CC2)CC1 [compound 80]
16 | > 10000 | CN(C)C1CCN(Cc2ccc(NC(=O)c3nn(C)c4c3C(C)(C)Cc3cnc(N)nc3-4)cc2)CC1 [compound 117]
139 | 1610 | Cc1cnc(NC(=O)c2n[nH]c3c2C(C)(C)Cc2cnc(N)nc2-3)s1 [compound 65]
47 | 439 | CC1(C)Cc2cnc(N)nc2-c2[nH]nc(C(=O)Nc3nc(CC(=O)NC4CCCCC4)cs3)c21 [compound 35]
8 | 146 | CC1(C)Cc2c(C(=O)Nc3nc(COC4CCN(C5CCCCCC5)CC4)cs3)n[nH]c2-c2nc(N)ncc21 [compound 232]
18 | > 10000 | CNc1ncc2c(n1)-c1[nH]nc(C(=O)Nc3nc(CC(=O)N4CCC(N5CCCCC5)CC4)cs3)c1C(C)(C)C2 [compound 121]
24 | 76 | CC1(C)Cc2cnc(N)nc2-c2[nH]nc(C(=O)Nc3ccc(C(=O)N4CCC(N5CCCCC5)CC4)cc3)c21 [compound 20]
57 | 1390 | CN1CCC(NC(=O)Cc2csc(NC(=O)c3n[nH]c4c3C(C)(C)Cc3cnc(N)nc3-4)n2)CC1 [compound 86]

IC50 (Δ49N-hChoKα) [nM] | IC50 (hChoKβ FL) [nM] | SMILES
594 | > 10000 | CN(C)[C@@H]1CCN(Cc2csc(NC(=O)c3nn(C)c4c3C(C)(C)Cc3cnc(N)nc3-4)n2)C1 [compound 147]
266 | 435 | CC1(C)Cc2cnc(N)nc2-c2[nH]nc(C(=O)Nc3cccc(C(=O)N4CCC(N5CCCC5)CC4)c3)c21 [compound 26]
52 | > 10000 | CNc1ncc2c(n1)-c1c(c(C(=O)Nc3nc(CC(=O)N4CCC(N5CCC(C)CC5)CC4)cs3)nn1C)C(C)(C)C2 [compound 85]
641 | 6350 | CC1(C)Cc2cnc(N)nc2-c2[nH]nc(C(=O)Nc3cccc(C(=O)O)c3)c21 [compound 18]
126 | > 10000 | Cn1nc(C(=O)Nc2ccc(CN3CCC(N4CCCCC4)CC3)cc2)c2c1-c1nc(N)ncc1CC2(C)C [compound 128]
33 | 72 | CN(C)C1CCN(Cc2ccc(NC(=O)c3n[nH]c4c3C(C)(C)Cc3cnc(N)nc3-4)cc2)CC1 [compound 118]
42 | 122 | CC1(C)Cc2cnc(N)nc2-c2[nH]nc(C(=O)Nc3ccc(C(=O)N4CCC(N5CCCC5)CC4)cc3)c21 [compound 13]
3 | 249 | CC1(C)Cc2cnc(N)nc2-c2[nH]nc(C(=O)Nc3nc(CNC4CCN(C5CCCCC5)CC4)cs3)c21 [compound 156]
200 | 1160 | Cc1nc(NC(=O)c2n[nH]c3c2C(C)(C)Cc2cnc(N)nc2-3)sc1C(=O)NC1CCCCC1 [compound 77]
992 | > 10000 | CC1(C)Cc2cnc(N)nc2-c2[nH]nc(C(=O)Nc3ccc(OC(F)(F)F)cc3)c21 [compound 3]
267 | 444 | CNC(=O)c1ccc(NC(=O)c2n[nH]c3c2C(C)(C)Cc2cnc(N)nc2-3)cc1 [compound 27]
10 | 400 | CN(C)C1CCN(C(=O)Cc2csc(NC(=O)c3n[nH]c4c3C(C)(C)Cc3cnc(N)nc3-4)n2)CC1 [compound 89]
35 | 1080 | CC1(C)Cc2cnc(N)nc2-c2[nH]nc(C(=O)Nc3nc(C(=O)N4CCC(N5CCCCC5)CC4)cs3)c21 [compound 70]
4 | 184 | CC1(C)Cc2cnc(N)nc2-c2[nH]nc(C(=O)Nc3nc(COC4CCN(C5CCCCCC5)CC4)cs3)c21 [compound 223]
431 | > 10000 | Cn1nc(C(=O)Nc2cccc(CN3CCC(N4CCCCC4)CC3)c2)c2c1-c1nc(N)ncc1CC2(C)C [compound 109]
715 | 3510 | CC1(C)Cc2cnc(N)nc2-c2[nH]nc(C(=O)Nc3ccc(C(=O)N4CCC(NC(=O)CCCO)CC4)cc3)c21 [compound 53]
135 | 2850 | CC1(C)Cc2cnc(N)nc2-c2[nH]nc(C(=O)Nc3cccc(CN4CCC(N5CCCCC5)CC4)c3)c21 [compound 110]
8 | 546 | CC1(C)CCC(N2CCC(OCc3csc(NC(=O)c4n[nH]c5c4C(C)(C)Cc4cnc(N)nc4-5)n3)CC2)CC1 [compound 190]
7 | 1030 | CC(C)(C)OC(=O)NC1CCN(C(=O)Cc2csc(NC(=O)c3n[nH]c4c3C(C)(C)Cc3cnc(N)nc3-4)n2)CC1 [compound 43]

SMILES | IC50 (Δ49N-hChoKα) [nM] | IC50 (hChoKβ FL) [nM]
CC1(C)Cc2cnc(N)nc2-c2[nH]nc(C(=O)Nc3nc(CC(=O)N4CCN(C5CCCCC5)CC4)cs3)c21 [compound 150] | 6 | 352
CN(C)[C@H]1CCN(C(=O)Cc2csc(NC(=O)c3n[nH]c4c3C(C)(C)Cc3cnc(N)nc3-4)n2)C1 [compound 93] | 12 | 761
